Experimental data: ChEMBL document CHEMBL4507287, “Data for DCP probe MRL-650” (2021)

Columns and labels:
[1] = biological target: Activin receptor type-2A (Homo sapiens) (UniProt P27037); conditions: Compound concentration 1000.0 nM
[2] = test system: ALK tyrosine kinase receptor (Homo sapiens), Q9UM73 [C1156Y]; conditions: Compound concentration 1000.0 nM
[3] = biological target: Tyrosine-protein kinase Blk (Homo sapiens) (UniProt P51451); conditions: Compound concentration 1000.0 nM
[4] = biological target: Cyclin-dependent kinase 2 (Homo sapiens) (UniProt P24941); conditions: Compound concentration 1000.0 nM
[5] = biological target: Dual specificity protein kinase CLK2 (Homo sapiens) (UniProt P49760); conditions: Compound concentration 1000.0 nM
[6] = biological target: Megakaryocyte-associated tyrosine-protein kinase (Homo sapiens) (UniProt P42679); conditions: Compound concentration 1000.0 nM
[7] = biological target: Death-associated protein kinase 3 (Homo sapiens) (UniProt O43293); conditions: Compound concentration 1000.0 nM
[8] = biological target: Serine/threonine-protein kinase DCLK1 (Homo sapiens) (UniProt O15075); conditions: Compound concentration 1000.0 nM
[9] = biological target: Serine/threonine-protein kinase DCLK3 (Homo sapiens) (UniProt Q9C098); conditions: Compound concentration 1000.0 nM
[10] = biological target: Serine/threonine-protein kinase 17B (Homo sapiens) (UniProt O94768); conditions: Compound concentration 1000.0 nM
Chain of Serine/threonine-protein kinase 17B (Homo sapiens) (O94768 whole entry): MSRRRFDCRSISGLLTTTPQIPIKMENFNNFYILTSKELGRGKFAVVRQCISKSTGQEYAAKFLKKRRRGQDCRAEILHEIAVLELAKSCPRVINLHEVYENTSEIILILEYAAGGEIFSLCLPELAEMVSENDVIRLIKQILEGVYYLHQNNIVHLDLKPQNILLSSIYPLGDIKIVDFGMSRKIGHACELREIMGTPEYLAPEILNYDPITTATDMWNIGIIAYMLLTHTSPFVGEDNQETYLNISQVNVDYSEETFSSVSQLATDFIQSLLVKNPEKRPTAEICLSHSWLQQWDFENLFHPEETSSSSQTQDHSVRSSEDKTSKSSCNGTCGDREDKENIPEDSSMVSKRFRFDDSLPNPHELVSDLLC

[11] = biological target: Dual specificity tyrosine-phosphorylation-regulated kinase 1A (Homo sapiens) (UniProt Q13627); conditions: Compound concentration 1000.0 nM
[12] = biological target: Tyrosine-protein kinase Fes/Fps (Homo sapiens) (UniProt P07332); conditions: Compound concentration 1000.0 nM
[13] = biological target: Fibroblast growth factor receptor 2 (Homo sapiens) (UniProt P21802); conditions: Compound concentration 1000.0 nM
[14] = test system: eIF-2-alpha kinase GCN2 (Homo sapiens), Q9P2K8 [S808G]; conditions: Compound concentration 1000.0 nM
[15] = biological target: Glycogen synthase kinase-3 alpha (Homo sapiens) (UniProt P49840); conditions: Compound concentration 1000.0 nM
Chain of Glycogen synthase kinase-3 alpha (Homo sapiens) (P49840 2-483 limits assumed): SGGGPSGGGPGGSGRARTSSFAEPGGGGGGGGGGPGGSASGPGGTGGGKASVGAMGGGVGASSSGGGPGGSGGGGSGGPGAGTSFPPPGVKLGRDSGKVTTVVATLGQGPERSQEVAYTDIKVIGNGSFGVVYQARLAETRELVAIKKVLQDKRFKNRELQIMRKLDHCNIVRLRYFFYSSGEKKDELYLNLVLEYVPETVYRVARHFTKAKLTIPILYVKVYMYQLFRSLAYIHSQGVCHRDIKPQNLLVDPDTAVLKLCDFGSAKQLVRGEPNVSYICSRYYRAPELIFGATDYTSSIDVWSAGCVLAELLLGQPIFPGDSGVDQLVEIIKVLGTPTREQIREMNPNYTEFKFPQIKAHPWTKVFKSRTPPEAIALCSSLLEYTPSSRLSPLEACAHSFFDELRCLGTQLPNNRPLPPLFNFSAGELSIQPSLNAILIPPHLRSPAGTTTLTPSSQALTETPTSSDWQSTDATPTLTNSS

[16] = biological target: Insulin receptor (Homo sapiens) (UniProt P06213); conditions: Compound concentration 1000.0 nM
Chain of Insulin receptor (Homo sapiens) (P06213 28-758 limits assumed): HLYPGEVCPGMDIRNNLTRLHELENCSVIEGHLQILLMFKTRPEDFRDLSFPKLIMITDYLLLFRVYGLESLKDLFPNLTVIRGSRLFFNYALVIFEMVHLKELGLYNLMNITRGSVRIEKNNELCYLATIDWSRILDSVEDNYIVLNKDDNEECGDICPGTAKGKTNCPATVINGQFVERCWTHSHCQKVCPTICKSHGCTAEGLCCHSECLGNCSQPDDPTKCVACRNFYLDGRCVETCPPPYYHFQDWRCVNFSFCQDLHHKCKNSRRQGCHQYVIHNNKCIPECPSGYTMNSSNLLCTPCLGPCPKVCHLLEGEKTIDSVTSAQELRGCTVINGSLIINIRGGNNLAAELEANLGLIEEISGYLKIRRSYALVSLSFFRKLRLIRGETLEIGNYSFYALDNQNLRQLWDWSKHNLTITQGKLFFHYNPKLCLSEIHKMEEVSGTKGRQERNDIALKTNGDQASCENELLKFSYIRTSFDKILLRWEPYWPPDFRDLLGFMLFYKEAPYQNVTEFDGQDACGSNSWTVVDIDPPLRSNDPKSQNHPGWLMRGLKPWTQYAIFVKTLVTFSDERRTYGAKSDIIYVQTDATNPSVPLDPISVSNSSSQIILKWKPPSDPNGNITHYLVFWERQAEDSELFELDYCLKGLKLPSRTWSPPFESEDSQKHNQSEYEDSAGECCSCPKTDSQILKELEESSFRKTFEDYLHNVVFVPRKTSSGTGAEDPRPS
Chain of Insulin receptor (Homo sapiens) (P06213 763-1382 limits assumed): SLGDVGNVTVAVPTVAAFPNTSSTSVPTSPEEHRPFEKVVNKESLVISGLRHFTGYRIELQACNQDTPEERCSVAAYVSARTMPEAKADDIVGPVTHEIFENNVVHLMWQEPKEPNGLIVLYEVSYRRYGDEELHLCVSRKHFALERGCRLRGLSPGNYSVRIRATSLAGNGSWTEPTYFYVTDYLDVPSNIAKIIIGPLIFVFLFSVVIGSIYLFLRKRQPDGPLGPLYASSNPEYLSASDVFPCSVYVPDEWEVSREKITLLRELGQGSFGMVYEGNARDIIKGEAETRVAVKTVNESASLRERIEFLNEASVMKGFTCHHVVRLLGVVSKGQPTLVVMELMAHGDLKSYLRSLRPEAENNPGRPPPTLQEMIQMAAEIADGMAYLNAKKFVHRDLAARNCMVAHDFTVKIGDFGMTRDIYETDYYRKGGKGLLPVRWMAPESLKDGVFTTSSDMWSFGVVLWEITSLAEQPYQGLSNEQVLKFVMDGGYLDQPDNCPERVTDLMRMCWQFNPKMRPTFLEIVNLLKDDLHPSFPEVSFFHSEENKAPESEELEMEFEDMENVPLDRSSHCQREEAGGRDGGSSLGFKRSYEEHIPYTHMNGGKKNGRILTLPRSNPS

[17] = biological target: Mast/stem cell growth factor receptor Kit (Homo sapiens) (UniProt P10721); conditions: Compound concentration 1000.0 nM
[18] = biological target: Tyrosine-protein kinase Lck (Homo sapiens) (UniProt P06239); conditions: Compound concentration 1000.0 nM
[19] = biological target: Mitogen-activated protein kinase kinase kinase 2 (Homo sapiens) (UniProt Q9Y2U5); conditions: Compound concentration 1000.0 nM
[20] = biological target: Mitogen-activated protein kinase kinase kinase 4 (Homo sapiens) (UniProt Q9Y6R4); conditions: Compound concentration 1000.0 nM
[21] = biological target: Mitogen-activated protein kinase kinase kinase kinase 3 (Homo sapiens) (UniProt Q8IVH8); conditions: Compound concentration 1000.0 nM
[22] = biological target: Mitogen-activated protein kinase kinase kinase kinase 4 (Homo sapiens) (UniProt O95819); conditions: Compound concentration 1000.0 nM
[23] = biological target: Dual specificity mitogen-activated protein kinase kinase 4 (Homo sapiens) (UniProt P45985); conditions: Compound concentration 1000.0 nM
[24] = biological target: MAP kinase-interacting serine/threonine-protein kinase 2 (Homo sapiens) (UniProt Q9HBH9); conditions: Compound concentration 1000.0 nM
[25] = biological target: Serine/threonine-protein kinase MRCK beta (Homo sapiens) (UniProt Q9Y5S2); conditions: Compound concentration 1000.0 nM
[26] = biological target: Serine/threonine-protein kinase Nek10 (Homo sapiens) (UniProt Q6ZWH5); conditions: Compound concentration 1000.0 nM
[27] = test system: Phosphatidylinositol 4,5-bisphosphate 3-kinase catalytic subunit alpha isoform (Homo sapiens), P42336 [E545A]; conditions: Compound concentration 1000.0 nM
[28] = test system: Phosphatidylinositol 4,5-bisphosphate 3-kinase catalytic subunit alpha isoform (Homo sapiens), P42336 [M1043I]; conditions: Compound concentration 1000.0 nM
[29] = biological target: Phosphatidylinositol 4,5-bisphosphate 3-kinase catalytic subunit gamma isoform (Homo sapiens) (UniProt P48736); conditions: Compound concentration 1000.0 nM
Chain of Phosphatidylinositol 4,5-bisphosphate 3-kinase catalytic subunit gamma isoform (Homo sapiens) (P48736 whole entry, looked up, canonical isoform): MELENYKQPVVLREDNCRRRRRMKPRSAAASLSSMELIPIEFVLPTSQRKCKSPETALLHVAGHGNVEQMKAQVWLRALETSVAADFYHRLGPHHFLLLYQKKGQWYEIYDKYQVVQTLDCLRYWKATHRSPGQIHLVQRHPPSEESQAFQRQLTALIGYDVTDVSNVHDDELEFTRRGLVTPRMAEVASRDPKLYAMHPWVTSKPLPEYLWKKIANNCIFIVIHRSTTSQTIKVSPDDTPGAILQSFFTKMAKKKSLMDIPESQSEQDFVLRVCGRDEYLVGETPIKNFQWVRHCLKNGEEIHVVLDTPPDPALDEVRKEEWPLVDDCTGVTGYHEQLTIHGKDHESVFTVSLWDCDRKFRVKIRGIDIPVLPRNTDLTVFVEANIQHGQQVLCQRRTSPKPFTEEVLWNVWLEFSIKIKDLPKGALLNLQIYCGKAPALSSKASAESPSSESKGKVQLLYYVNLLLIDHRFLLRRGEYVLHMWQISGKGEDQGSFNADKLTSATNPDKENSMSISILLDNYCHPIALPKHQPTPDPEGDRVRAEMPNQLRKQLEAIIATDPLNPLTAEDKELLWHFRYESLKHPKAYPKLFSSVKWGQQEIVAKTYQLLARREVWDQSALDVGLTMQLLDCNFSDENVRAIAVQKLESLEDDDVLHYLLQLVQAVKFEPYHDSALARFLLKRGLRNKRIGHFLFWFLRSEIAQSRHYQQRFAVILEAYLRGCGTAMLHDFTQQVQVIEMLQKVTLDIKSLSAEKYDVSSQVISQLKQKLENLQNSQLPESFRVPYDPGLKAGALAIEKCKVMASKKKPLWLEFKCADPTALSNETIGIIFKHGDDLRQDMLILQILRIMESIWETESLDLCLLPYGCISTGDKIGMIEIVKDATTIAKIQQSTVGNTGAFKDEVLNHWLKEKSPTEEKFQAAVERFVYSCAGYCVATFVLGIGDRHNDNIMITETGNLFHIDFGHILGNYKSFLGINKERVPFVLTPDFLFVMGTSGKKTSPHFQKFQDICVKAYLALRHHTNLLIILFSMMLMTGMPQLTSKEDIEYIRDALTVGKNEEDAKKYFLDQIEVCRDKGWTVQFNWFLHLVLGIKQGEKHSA

[30] = biological target: Serine/threonine-protein kinase N2 (Homo sapiens) (UniProt Q16513); conditions: Compound concentration 1000.0 nM
[31] = biological target: cGMP-dependent protein kinase 1 (Homo sapiens) (UniProt Q13976); conditions: Compound concentration 1000.0 nM
[32] = biological target: Proto-oncogene tyrosine-protein kinase receptor Ret (Homo sapiens) (UniProt P07949); conditions: Compound concentration 1000.0 nM
[33] = biological target: Ribosomal protein S6 kinase alpha-5 (Homo sapiens) (UniProt O75582); conditions: Compound concentration 1000.0 nM
Chain of Ribosomal protein S6 kinase alpha-5 (Homo sapiens) (O75582 whole entry, looked up): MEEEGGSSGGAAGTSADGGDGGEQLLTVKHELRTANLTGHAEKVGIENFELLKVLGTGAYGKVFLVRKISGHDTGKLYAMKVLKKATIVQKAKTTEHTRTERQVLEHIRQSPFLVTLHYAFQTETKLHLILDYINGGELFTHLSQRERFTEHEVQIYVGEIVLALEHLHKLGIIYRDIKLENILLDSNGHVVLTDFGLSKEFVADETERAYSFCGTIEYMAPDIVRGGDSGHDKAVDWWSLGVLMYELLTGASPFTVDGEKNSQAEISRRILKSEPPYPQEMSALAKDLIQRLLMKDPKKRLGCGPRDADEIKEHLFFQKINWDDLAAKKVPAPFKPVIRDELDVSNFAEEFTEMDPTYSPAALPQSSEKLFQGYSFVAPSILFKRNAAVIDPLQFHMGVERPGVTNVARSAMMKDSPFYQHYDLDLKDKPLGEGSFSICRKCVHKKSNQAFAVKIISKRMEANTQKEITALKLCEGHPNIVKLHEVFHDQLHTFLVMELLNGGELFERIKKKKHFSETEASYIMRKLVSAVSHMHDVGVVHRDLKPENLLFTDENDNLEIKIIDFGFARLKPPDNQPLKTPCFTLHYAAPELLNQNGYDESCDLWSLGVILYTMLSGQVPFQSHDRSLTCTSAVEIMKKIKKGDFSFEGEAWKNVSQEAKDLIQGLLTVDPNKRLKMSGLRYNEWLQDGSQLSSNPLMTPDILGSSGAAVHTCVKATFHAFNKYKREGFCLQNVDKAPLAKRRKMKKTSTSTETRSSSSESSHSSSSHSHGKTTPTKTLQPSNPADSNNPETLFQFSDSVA

[34] = biological target: Serine/threonine-protein kinase Sgk3 (Homo sapiens) (UniProt Q96BR1); conditions: Compound concentration 1000.0 nM
[35] = biological target: SRSF protein kinase 2 (Homo sapiens) (UniProt P78362); conditions: Compound concentration 1000.0 nM
[36] = biological target: Serine/threonine-protein kinase 35 (Homo sapiens) (UniProt Q8TDR2); conditions: Compound concentration 1000.0 nM
[37] = biological target: Dual specificity testis-specific protein kinase 1 (Homo sapiens) (UniProt Q15569); conditions: Compound concentration 1000.0 nM
[38] = biological target: High affinity nerve growth factor receptor (Homo sapiens) (UniProt P04629); conditions: Compound concentration 1000.0 nM
[39] = biological target: Phosphatidylinositol 3-kinase catalytic subunit type 3 (Homo sapiens) (UniProt Q8NEB9); conditions: Compound concentration 1000.0 nM
[40] = biological target: Serine/threonine-protein kinase 25 (Homo sapiens) (UniProt O00506); conditions: Compound concentration 1000.0 nM
Chain of Serine/threonine-protein kinase 25 (Homo sapiens) (O00506 whole entry, looked up): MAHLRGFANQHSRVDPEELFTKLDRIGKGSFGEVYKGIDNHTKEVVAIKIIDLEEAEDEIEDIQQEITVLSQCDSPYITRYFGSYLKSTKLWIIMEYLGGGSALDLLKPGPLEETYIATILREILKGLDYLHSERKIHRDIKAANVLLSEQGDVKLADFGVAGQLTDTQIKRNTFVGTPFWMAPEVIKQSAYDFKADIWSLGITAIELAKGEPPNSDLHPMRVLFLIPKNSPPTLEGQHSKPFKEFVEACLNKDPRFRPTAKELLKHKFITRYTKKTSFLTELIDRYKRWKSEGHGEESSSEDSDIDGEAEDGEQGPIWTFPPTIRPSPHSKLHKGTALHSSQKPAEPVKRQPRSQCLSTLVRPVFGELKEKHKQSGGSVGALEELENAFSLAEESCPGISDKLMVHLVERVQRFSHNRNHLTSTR

[41] = biological target: Alpha-1A adrenergic receptor (Homo sapiens) (UniProt P35348); conditions: Compound concentration 10.0 uM
[42] = biological target: Alpha-1B adrenergic receptor (Homo sapiens) (UniProt P35368); conditions: Compound concentration 10.0 uM
[43] = biological target: GABA-A receptor; anion channel (Rattus norvegicus) (UniProt O09028+P15431+P18506+P18508+P19969+P20236+P23574+P23576+P28471+P28473+P30191+P62813+P63079+P63138+Q91ZM7+Q9ES14); conditions: Compound concentration 10.0 uM

Chain of Tyrosine-protein kinase Blk (Homo sapiens) (P51451 2-505 limits assumed): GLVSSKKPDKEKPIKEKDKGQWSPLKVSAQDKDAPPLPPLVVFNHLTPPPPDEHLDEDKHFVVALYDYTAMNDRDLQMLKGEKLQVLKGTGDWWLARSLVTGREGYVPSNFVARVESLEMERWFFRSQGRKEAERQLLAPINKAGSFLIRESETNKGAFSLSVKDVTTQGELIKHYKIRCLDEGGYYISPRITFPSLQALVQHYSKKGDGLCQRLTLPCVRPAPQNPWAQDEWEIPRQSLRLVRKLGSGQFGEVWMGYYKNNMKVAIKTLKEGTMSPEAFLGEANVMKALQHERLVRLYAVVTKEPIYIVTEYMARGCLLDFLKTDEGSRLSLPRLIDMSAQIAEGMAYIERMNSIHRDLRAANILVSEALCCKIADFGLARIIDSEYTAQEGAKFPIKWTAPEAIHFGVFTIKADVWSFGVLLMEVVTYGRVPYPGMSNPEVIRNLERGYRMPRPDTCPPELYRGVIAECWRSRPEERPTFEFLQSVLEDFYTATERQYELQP

CC(=O)c1c(NS(C)(=O)=O)c2cc(-c3ccc(Cl)cc3)c(-c3ccc(Cl)cc3Cl)nc2n(C)c1=O [MRL-CB1-NC]
residual activity [1]: 100% | residual activity [2]: 100% | residual activity [3]: 100% | residual activity [4]: 100% | residual activity [5]: 100% | residual activity [6]: 83% | residual activity [7]: 100% | residual activity [8]: 98% | residual activity [9]: 100% | residual activity [10]: 100% | residual activity [11]: 77% | residual activity [12]: 87% | residual activity [13]: 92% | residual activity [14]: 100% | residual activity [15]: 75% | residual activity [16]: 73% | residual activity [17]: 100% | residual activity [18]: 100% | residual activity [19]: 93% | residual activity [20]: 95% | residual activity [21]: 99% | residual activity [22]: 100% | residual activity [23]: 89% | residual activity [24]: 75% | residual activity [25]: 81% | residual activity [26]: 99% | residual activity [27]: 100% | residual activity [28]: 100% | residual activity [29]: 82% | residual activity [30]: 76% | residual activity [31]: 75% | residual activity [32]: 93% | residual activity [33]: 100% | residual activity [34]: 79% | residual activity [35]: 100% | residual activity [36]: 100% | residual activity [37]: 100% | residual activity [38]: 64% | residual activity [39]: 93% | residual activity [40]: 100% | inhibition [41]: 28.5% | inhibition [42]: 47.2% | inhibition [43]: 60.9%

CC(=O)Nc1c(C(C)=O)c(=O)n(C)c2nc(-c3ccc(Cl)cc3Cl)c(-c3ccc(Cl)cc3)cc12 [NAPHTHYRIDINONE]
residual activity [1]: 100% | residual activity [2]: 100% | residual activity [3]: 100% | residual activity [4]: 100% | residual activity [5]: 100% | residual activity [6]: 100% | residual activity [7]: 100% | residual activity [8]: 100% | residual activity [9]: 100% | residual activity [10]: 100% | residual activity [11]: 100% | residual activity [12]: 100% | residual activity [13]: 100% | residual activity [14]: 48% | residual activity [15]: 100% | residual activity [16]: 100% | residual activity [17]: 100% | residual activity [18]: 100% | residual activity [19]: 100% | residual activity [20]: 89% | residual activity [21]: 100% | residual activity [22]: 100% | residual activity [23]: 100% | residual activity [24]: 100% | residual activity [25]: 100% | residual activity [26]: 100% | residual activity [27]: 85% | residual activity [28]: 100% | residual activity [29]: 78% | residual activity [30]: 100% | residual activity [31]: 100% | residual activity [32]: 100% | residual activity [33]: 100% | residual activity [34]: 100% | residual activity [35]: 100% | residual activity [36]: 100% | residual activity [37]: 100% | residual activity [38]: 100% | residual activity [39]: 100% | residual activity [40]: 100% | inhibition [41]: -6.63% | inhibition [42]: 17.1% | inhibition [43]: 30.2%
